Test results: US5185320A, “O^56 -alkyl derivatives of aglycone and pseudo aglycones of teicoplanin” (Gruppo Lepetit S.p.A., priority 1989, dated 1993)

Key:
Type in all cases: cell-based
Conditions in all cases: inoculum about 10^4 CFU/ml, 18-24 h at 37° C.
[1] = tested on: Strep. faecalis ATCC 7080; assay: MIC, standard dilution test, Strep. faecalis ATCC 7080
Experimental: (§1) ISOSENSITEST broth (Oxoid) and TOLLD-HEWITT broth (Difco) are used for growing staphylococci and streptococci, respectively. Broth cultures are diluted so that the final inoculum is about 10^4 colony forming units/ml (CFU/ml).

[2] = tested on: Escherichia coli SKF 12140; assay: MIC, standard dilution test, Escherichia coli SKF 12140
Experimental: as §1

Staph. aureus Tour L 165 = assay: MIC, standard dilution test, Staph. aureus Tour L 165
Experimental: as §1

Strep. mitis L 796 = assay: MIC, standard dilution test, Strep. mitis L 796
Experimental: as §1

Strep. pyogenes C 203 = assay: MIC, standard dilution test, Strep. pyogenes C 203
Experimental: as §1

[3] = tested on: Staph. epidermidis ATCC 12228; assay: MIC, standard dilution test, Staph. epidermidis ATCC 12228
Experimental: as §1

[4] = tested on: Haemophilus influenzae ATCC 19418; assay: MIC, standard dilution test, Haemophilus influenzae ATCC 19418
Experimental: as §1

Strep. pneumoniae UC41 = assay: MIC, standard dilution test, Strep. pneumoniae UC41
Experimental: as §1

[5] = tested on: Pseudomonas aeruginosa ATCC 10145; assay: MIC, standard dilution test, Pseudomonas aeruginosa ATCC 10145
Experimental: as §1

[6] = tested on: Proteus vulgaris ATCC 881; assay: MIC, standard dilution test, Proteus vulgaris ATCC 881
Experimental: as §1

[7] = tested on: Neisseria gonorrhoeae ISM68/126; assay: MIC, standard dilution test, Neisseria gonorrhoeae ISM68/126
Experimental: as §1

[8] = tested on: Staph. haemolyticus L 602; assay: MIC, standard dilution test, Staph. haemolyticus L 602
Experimental: as §1

Minimal inhibitory concentration (MIC) [1]	Minimal inhibitory concentration (MIC) [2]	Minimal inhibitory concentration (MIC) (Staph. aureus Tour L 165)	Minimal inhibitory concentration (MIC) (Strep. mitis L 796)	Minimal inhibitory concentration (MIC) (Strep. pyogenes C 203)	Minimal inhibitory concentration (MIC) [3]	Minimal inhibitory concentration (MIC) [4]	Minimal inhibitory concentration (MIC) (Strep. pneumoniae UC41)	Minimal inhibitory concentration (MIC) [5]	Minimal inhibitory concentration (MIC) [6]	Minimal inhibitory concentration (MIC) [7]	SMILES	Minimal inhibitory concentration (MIC) [8]
0.125	8	0.125	0.125	0.125	0.25	64	0.25	64	128	32	COC(=O)C1NC(=O)C2NC(=O)C(NC(=O)C3NC(=O)C4NC(=O)C(Cc5ccc(c(Cl)c5)Oc5cc3cc(c5OCCN3CCCC3)Oc3ccc(cc3Cl)C2O)NC(=O)C(N)c2ccc(O)c(c2)Oc2cc(O)cc4c2)c2ccc(O)c(c2)-c2c(O)cc(O)cc21.Cl.Cl (stereo not shown) [Compound 13, O^56-[2-(1-pyrrolidinyl)ethyl]deglucoteicoplanin methyl ester dihydrochloride]	0.5
0.5	> 128	0.5	0.125	0.125	0.25	> 128	0.25	> 128	> 128	> 128	NC1C(=O)NC2Cc3ccc(c(Cl)c3)Oc3cc4cc(c3OCc3ccccc3)Oc3ccc(cc3Cl)C(O)C3NC(=O)C(NC(=O)C4NC(=O)C(NC2=O)c2cc(O)cc(c2)Oc2cc1ccc2O)c1ccc(O)c(c1)-c1c(O)cc(O)cc1C(C(=O)OCc1ccccc1)NC3=O (stereo not shown) [Compound 20, O^56 -phenylmethyldeglucoteicoplanin phenylmethyl ester]	4
2	> 128	0.125	0.25	0.125	0.5	64	0.125	> 128	> 128	> 128	COC(=O)C1NC(=O)C2NC(=O)C(NC(=O)C3NC(=O)C4NC(=O)C(Cc5ccc(c(Cl)c5)Oc5cc3cc(c5OCCCl)Oc3ccc(cc3Cl)C2O)NC(=O)C(N)c2ccc(O)c(c2)Oc2cc(O)cc4c2)c2ccc(O)c(c2)-c2c(O)cc(O)cc21 (stereo not shown) [Compound 7, O^56-(2-chloroethyl) deglucoteicoplanin methyl ester]	1
4	> 128	2	1	0.125	4	> 128	1	> 128	> 128	> 128	COC(=O)C1NC(=O)C2NC(=O)C(NC(=O)C3NC(=O)C4NC(=O)C(Cc5ccc(c(Cl)c5)Oc5cc3cc(c5OCCCCN)Oc3ccc(cc3Cl)C2O[C@@H]2O[C@H](CO)[C@@H](O)[C@H](O)[C@H]2NC(C)=O)NC(=O)C(N)c2ccc(O)c(c2)Oc2cc(O)cc4c2)c2ccc(O)c(c2)-c2c(O[C@H]3O[C@H](CO)[C@@H](O)[C@H](O)[C@@H]3O)cc(O)cc21 (stereo partly shown) [Compound 10, O^56-(4-aminobutyl)teicoplanin pseudoaglycone methyl ester]	16
0.125	8	0.125	0.125	0.063	0.125	–	0.125	32	32	–	COC(=O)C1NC(=O)C2NC(=O)C(NC(=O)C3NC(=O)C4NC(=O)C(Cc5ccc(c(Cl)c5)Oc5cc3cc(c5OCCCCN)Oc3ccc(cc3Cl)C2O)NC(=O)C(N)c2ccc(O)c(c2)Oc2cc(O)cc4c2)c2ccc(O)c(c2)-c2c(O)cc(O)cc21 (stereo not shown) [Compound 5, O^56-(4-aminobutyl)deglucoteicoplanin methyl ester]	0.5
–	32	0.06	–	0.125	–	–	–	–	–	–	NC1C(=O)NC2Cc3ccc(c(Cl)c3)Oc3cc4cc(c3OCCO)Oc3ccc(cc3Cl)C(O)C3NC(=O)C(NC(=O)C4NC(=O)C(NC2=O)c2cc(O)cc(c2)Oc2cc1ccc2O)c1ccc(O)c(c1)-c1c(O)cc(O)cc1C(C(=O)OCCO)NC3=O (stereo not shown) [Compound 22, O^56-(2-hydroxyethyl)deglucoteicoplanin 2-hydroxyethyl ester]	0.5
0.5	16	0.25	0.125	0.032	0.25	–	0.25	> 128	> 128	128	COC(=O)C1NC(=O)C2NC(=O)C(NC(=O)C3NC(=O)C4NC(=O)C(Cc5ccc(c(Cl)c5)Oc5cc3cc(c5OCCCCN(CCN(C)C)CCN(C)C)Oc3ccc(cc3Cl)C2O)NC(=O)C(N)c2ccc(O)c(c2)Oc2cc(O)cc4c2)c2ccc(O)c(c2)-c2c(O)cc(O)cc21 (stereo not shown) [Compound 6, O^56-[4-[bis[2-(dimethylamino)ethyl]amino]butyl]deglucoteicoplanin methyl ester]	0.5
–	> 128	0.13	–	0.125	–	–	–	> 128	> 128	–	COC(=O)CNC(=O)CNCCOc1c2cc3cc1Oc1ccc(cc1Cl)C(O)C1NC(=O)C(NC(=O)C3NC(=O)C3NC(=O)C(Cc4ccc(c(Cl)c4)O2)NC(=O)C(N)c2ccc(O)c(c2)Oc2cc(O)cc3c2)c2ccc(O)c(c2)-c2c(O)cc(O)cc2C(C(=O)OCCBr)NC1=O (stereo not shown) [Compound 18, O^56-[2-[2-[(2-methoxy-2-oxoethyl)amino]-2-oxoethylamino]ethyl]deglucoteicoplanin 2-bromoethyl ester]	2

SMILES	Minimal inhibitory concentration (MIC) [1]	Minimal inhibitory concentration (MIC) [2]	Minimal inhibitory concentration (MIC) (Staph. aureus Tour L 165)	Minimal inhibitory concentration (MIC) (Strep. mitis L 796)	Minimal inhibitory concentration (MIC) (Strep. pyogenes C 203)	Minimal inhibitory concentration (MIC) [3]	Minimal inhibitory concentration (MIC) [4]	Minimal inhibitory concentration (MIC) (Strep. pneumoniae UC41)	Minimal inhibitory concentration (MIC) [5]	Minimal inhibitory concentration (MIC) [6]	Minimal inhibitory concentration (MIC) [7]	Minimal inhibitory concentration (MIC) [8]
N#CCOC(=O)C1NC(=O)C2NC(=O)C(NC(=O)C3NC(=O)C4NC(=O)C(Cc5ccc(c(Cl)c5)Oc5cc3cc(c5OCC#N)Oc3ccc(cc3Cl)C2O)NC(=O)C(N)c2ccc(O)c(c2)Oc2cc(O)cc4c2)c2ccc(O)c(c2)-c2c(O)cc(O)cc21.O=C(O)C(F)(F)F (stereo not shown) [Compound 12, O^56 -(cyanomethyl)deglucoteicoplanin cyanomethyl ester trifluoroacetate salt]	1	> 128	0.125	0.125	0.125	0.063	64	0.125	> 128	> 128	> 128	1
NCCNC(=O)C(CCO)OC(=O)C1NC(=O)C2NC(=O)C(NC(=O)C3NC(=O)C4NC(=O)C(Cc5ccc(c(Cl)c5)Oc5cc3cc(c5OC(CCO)C(=O)NCCN)Oc3ccc(cc3Cl)C2O)NC(=O)C(N)c2ccc(O)c(c2)Oc2cc(O)cc4c2)c2ccc(O)c(c2)-c2c(O)cc(O)cc21 (stereo not shown) [Compound 24]	0.5	32	0.25	0.125	0.125	0.125	> 128	0.25	> 128	128	128	0.25
COC(=O)C1NC(=O)C2NC(=O)C(NC(=O)C3NC(=O)C4NC(=O)C(Cc5ccc(c(Cl)c5)Oc5cc3cc(c5OC(CCO)C(=O)O)Oc3ccc(cc3Cl)C2O)NC(=O)C(N)c2ccc(O)c(c2)Oc2cc(O)cc4c2)c2ccc(O)c(c2)-c2c(O)cc(O)cc21.Cl (stereo not shown) [Compound 3, O^56-(1-carboxy-3-hydroxypropyl)deglucoteicoplanin methyl ester hydrochloride]	0.125	> 128	0.5	0.25	0.125	0.25	> 128	0.125	> 128	> 128	64	2
